Results published in US20110177179A1, “PREPARATION OF BOTANICAL EXTRACTS CONTAINING ABSORBABLE COMPONENTS USING PHARMACEUTICAL PLATFORM TECHNOLOGY” (SINOVEDA CANADA, INC., priority 2010, published 2011).
Like-named read-outs stand apart in the source and are kept apart here.

Tests used:
colonic bacteria = test: Metabolism by colonic (intestinal) bacteria, anaerobic incubation with fecal sample; format: in vitro ADME, rat; conditions: for metabolism by colonic bacteria (change in level): Red clover methanolic extract, anaerobic, 37° C., up to 24 hours
Experimental: The effect of colonic bacteria on the stability of a methanolic extract of Red clover was evaluated. The procedures reported by Schneider et al. (Schneider, Simmering et al. 2000) was used to prepare a fecal sample collected from a rat. The extract was incubated anaerobically at 37° C. for a period of 24 hours.

[1] = major component of Chuanxiong; Yan, Ko et al. 2008; cited from earlier work
MDCK cells = test: Permeability of extract components through MDCK cell monolayer; format: in vitro ADME; conditions: for permeability versus molecular weight trend: Rhodiola 80% methanol extract
Experimental: Both CaCo-2 and MDCK cells were purchased form American Type Culture Collection (ATCC) and cultured with Dulbecco Modified Eagle's Media (DMEM) supplemented with 10% fetal bovine serum, 1% non-essential amino acids, and 10 mM HEPES. All tissue culture media and supplements were purchased from Sigma-Aldrich. Following Yee's method (Yee 1997), CaCo-2 cells were seeded into transwell culture dishes and cultured for 21 days. Lin et al's. (2003) method was used to seed and culture MDCK cells; the culturing period was three days.
(§1) Two natural products: Rhodiola rosea and Red yeast rice were individually extracted using the three solvents described in Example 1. Each extract was dissolved in Hanks' balanced salt buffer supplemented with 20 mM HEPES at 1 mg/ml. Permeability studies were carried out using MDCK cells and samples were taken from the apical side at 0 minute and 60 minutes and from the basal side at 60 minutes after incubation. Samples were diluted with a 1:1 mixture of methanol and acetonitrile prior to analysis using a LC/MS system. Permeability coefficient number was calculated as follows: Peff (cm/sec)=(Vr/(A*Cs))*(Cf/t), where Vr is the receiver side volume (basal; ml), A is the area of monolayer (cm^2), Cs is the starting concentration at the donor side (μM), Cf is the concentration at the receiver side at time t (μM), and t is the incubation time (seconds).
as §1, with “The extracts of” for “Two natural products: Rhodiola rosea and”, “clover” for “yeast rice”, “individually” for “individually extracted using the three solvents described in Example 1. Each extract was”, “(cm/sec)=(Vr/(A*C,))*(Cf/t),” for “(cm/sec)=(Vr/(A*Cs))*(Cf/t),”

[2] = Hollman, van Trijp et al. 1997; cited from earlier work
[3] = after 6 hours of incubation with colonic bacteria
[4] = Rhodiola rosea extracts, 1 mg/ml, 60 minutes, p<0.05

COc1ccc(-c2coc3cc(O)ccc3c2=O)cc1 [formononetin]
metabolism by colonic bacteria (change in level) (colonic bacteria): increase | species left in the incubate (colonic bacteria; [3]): major species left

CCC/C=C1\OC(=O)C2=C1CCC=C2 [z-ligustilide]
bioavailability [1]: less than 3%

COc1ccc(-c2coc3cc(O)cc(O)c3c2=O)cc1 [biochanin A]
species left in the incubate (colonic bacteria): major species left

hydroxyrosavin
permeability, 80% methanol extract as opposed to water extract (MDCK cells; MDCK): significantly different

CC[C@H](C)C(=O)O[C@H]1C[C@@H](C)C=C2C=C[C@H](C)[C@H](CC[C@@H]3C[C@@H](O)CC(=O)O3)[C@H]21 [monacolin K]
permeability, comparison of water, 80% methanol and hexane extracts (MDCK cells; Red yeast rice extracts, 1 mg/ml, 60 minutes): highest in the hexane extract

C[C@@H]1O[C@@H](OC[C@H]2O[C@@H](Oc3c(-c4ccc(O)c(O)c4)oc4cc(O)cc(O)c4c3=O)[C@H](O)[C@@H](O)[C@@H]2O)[C@H](O)[C@H](O)[C@H]1O [Rutin]
detection in the blood stream [2]: not detected

OC[C@@H]1O[C@@H](OC[C@H]2O[C@@H](OC/C=C/c3ccccc3)[C@H](O)[C@@H](O)[C@@H]2O)[C@H](O)[C@H]1O [rosarin]
permeability versus molecular weight trend (MDCK cells; 1 mg/ml, 60 minutes): deviated significantly from the trend | permeability, 80% methanol extract as opposed to water extract (MDCK cells; [4]): significantly different

Oc1ccc([C@H]2COc3cc(O)ccc3C2)cc1 [Equol]
metabolism by colonic bacteria (change in level) (colonic bacteria): appeared shortly after incubation | species left in the incubate (colonic bacteria; [3]): major species left

O[C@@H]1[C@@H](O)[C@H](OC/C=C/c2ccccc2)O[C@H](CO[C@@H]2OC[C@H](O)[C@H](O)[C@H]2O)[C@H]1O [rosavin]
permeability versus molecular weight trend (MDCK cells; 1 mg/ml, 60 minutes): deviated significantly from the trend | permeability, 80% methanol extract as opposed to water extract (MDCK cells; [4]): significantly different
